In patent US7999004B2, “Compounds having estrogenic activity” (National Taiwan University, priority 2007, dated 2011):
Read-outs that look alike come from different tables or passages of the source.

Experiments:
GAL4-hERα = target: T1, GAL4-hERα (Homo sapiens, UniProt P03372); test: Transactivation assay for estrogen activity, GAL4-hERα LBD chimeric receptor with (UAS)4-alkaline phosphatase reporter in CHO-K1 cells; assay type: cell-based; conditions: for EC50: CHO-K1 cells, ALP reporter, read-out: EC50 value for ERα (converted); for maximal activation of ERα: at the concentration of maximal activation (compound 2: 40 μg/mL; compound 6: 20 μg/mL); for ALP activity with increasing concentration, GAL4-hERα / concentration at which the maximal activation of ERα is achieved: dose response curve
T1 construct: GAL4hERα (or β) LBD chimeric receptors; expressed in transfected cells; host or cells: CHO-K1 (CCRC 60006), transient co-transfection with Fugene 6
T1 sequence (P03372 311-547 limits assumed): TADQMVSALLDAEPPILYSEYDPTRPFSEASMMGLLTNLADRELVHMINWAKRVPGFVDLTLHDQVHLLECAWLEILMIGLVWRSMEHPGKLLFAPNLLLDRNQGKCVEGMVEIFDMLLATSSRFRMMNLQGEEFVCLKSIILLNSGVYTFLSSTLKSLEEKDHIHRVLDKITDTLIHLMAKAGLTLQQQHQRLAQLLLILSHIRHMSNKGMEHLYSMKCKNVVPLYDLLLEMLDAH
Text: (§1) To evaluate the estrogen activity, the pBKCMV plasmid containing the gene of GAL4hERα (or β) LBD chimeric receptors was co-transfected with a plasmid containing the (UAS)4-alkaline phosphatase reporter gene into CHO-K1 cells. When a test sample was reacted with ER, the GAL4 was mediated to bind specifically with the UAS upstream of the reporter gene so as to activate the expression of the reporter gene, i.e. the alkaline phosphatase (ALP) enzyme. By measuring the alkaline phosphatase activity, we can detect the estrogen activity of the sample.
(§2) Cells were grown to confluence and seeded into 96-well microplates for a day. Before transfection, the two plasmids DNA in equal proportions were added to a mixture of the Fugene 6 transfection reagent and Ham's F12 medium, and then incubated for 20 min. At transfection, the fugene 6-DNA mixture was then added to the cells after the original FBS containing medium was removed.
(§3) After a 2-day culture, an aliquot of the medium was taken for the analysis of alkaline phosphatase activity.

GAL4-hERβ = target: T2, GAL4-hERβ (Homo sapiens, UniProt Q92731); test: Transactivation assay for estrogen activity, GAL4-hERβ LBD chimeric receptor with (UAS)4-alkaline phosphatase reporter in CHO-K1 cells; assay type: cell-based; conditions: for EC50: CHO-K1 cells, ALP reporter, read-out: EC50 value for ERβ (converted); for maximal activation of ERβ: at the concentration of maximal activation (compound 2: 40 μg/mL; compound 6: 20 μg/mL); for ALP activity with increasing concentration, GAL4-hERβ / concentration at which the maximal activation of ERβ is achieved: dose response curve
T2 construct: GAL4hERα (or β) LBD chimeric receptors; expressed in transfected cells; host or cells: CHO-K1 (CCRC 60006), transient co-transfection with Fugene 6
T2 sequence (Q92731 264-498 limits assumed): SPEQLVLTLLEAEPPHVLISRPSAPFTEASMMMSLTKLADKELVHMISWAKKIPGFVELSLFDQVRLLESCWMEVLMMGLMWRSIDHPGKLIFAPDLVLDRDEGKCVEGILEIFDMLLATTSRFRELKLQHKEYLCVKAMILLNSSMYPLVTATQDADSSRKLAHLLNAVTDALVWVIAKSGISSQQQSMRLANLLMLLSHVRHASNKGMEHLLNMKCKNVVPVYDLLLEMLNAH
Text: as §1, §2, §3

[1] = three concentrations, fraction with compound 5

Row | SMILES | EC50 (GAL4-hERα) [µM] | EC50 (GAL4-hERα; value in parentheses) [µM] | EC50 (GAL4-hERβ) [µM] | EC50 (GAL4-hERβ; value in parentheses) [µM] | maximal activation of ERα (GAL4-hERα) [fold] | ALP activity with increasing concentration, GAL4-hERα (GAL4-hERα) | concentration at which the maximal activation of ERα is achieved (GAL4-hERα) [µg/mL] | concentration at which the maximal activation of ERα is achieved (GAL4-hERα; value in parentheses) [µM] | maximal activation of ERβ (GAL4-hERβ) [fold] | ALP activity with increasing concentration, GAL4-hERβ (GAL4-hERβ) | concentration at which the maximal activation of ERβ is achieved (GAL4-hERβ) [µg/mL] | concentration at which the maximal activation of ERβ is achieved (GAL4-hERβ; value in parentheses) [µM] | ALP activity, activation of GAL4-hERα (GAL4-hERα; [1]) | ALP activity, activation of GAL4-hERβ (GAL4-hERβ; [1])
1 | Cc1c(C)c2c(c(C)c1O)CC[C@@](C)(CCC[C@H](C)CCC[C@H](C)CCCC(C)C)O2 [compound 1, RRR-α-tocopherol] | 2.51 | 2.5 | 9.19 | 9.2 |  |  |  |  |  |  |  |  |  | 
2 | COc1c(O)c(C)c2c(c1OC)O[C@](C)(CC/C=C(\C)CC/C=C(\C)CC/C=C(\C)CC/C=C(\C)CC/C=C(\C)CC/C=C(\C)CC/C=C(\C)CCC=C(C)C)C=C2 [compound 2, hydro-Q9 chromene] | 10.7 | 10.8 | 7.36 | 7.4 | 3.68 | dose-dependent increase | 40 | 50.34 | 3.79 | dose-dependent increase | 40 | 50.34 |  | 
3 | COC1=C(OC)C(=O)C(C/C=C(\C)CC/C=C(\C)CC/C=C(\C)CC/C=C(\C)CC/C=C(\C)CC/C=C(\C)CC/C=C(\C)CC/C=C(\C)CCC=C(C)C)=C(C)C1=O [compound 3, coenzyme Q9] | 51 | 13.3 | 1.06 | 1.06 |  | dose-dependent increase | 20 | 25.2 |  | dose-dependent increase | 20 | 25.2 |  | 
4 | COc1cc(/C=C/C(=O)OCC(O)CO)ccc1O (stereo not shown) [compound 5, 1-feruloyl glycerol] |  |  |  |  |  |  |  |  |  |  |  |  | significant increases in the ALP activity | significant increases in the ALP activity
5 | CC(C)=CCC/C(C)=C/CC/C(C)=C/CC/C(C)=C/CC/C(C)=C/CC/C(C)=C/CC/C(C)=C/CC/C(C)=C/CC[C@]1(C)CCc2cc(O)c(C)c(C)c2O1 [compound 6, γ-tocopherol-9] | 12.7 | 12.7 | 3.19 | 3.2 | 2.91 | dose-dependent increase | 20 | 26.64 | 3.26 | dose-dependent increase | 20 | 26.64 |  | 
